Test systems include A498; CCRF-CEM; HOP-92; IGROV-1; KM12; LOX IMVI; MCF7; MDA-MB-231; OVCAR-3; OVCAR-5; PC-3; RXF 393; SK-MEL-2; SK-MEL-5; SN12C; SNB-19; SNB-75; SW-620; UACC-257; UO-31.
What all share (test): NCI anticancer screen, dose series, 48 h

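All cell lines were grown in 96-well plates and treated with compound for 48 hours. Abbreviation: GI50, concentration required for 50% inhibition of growth.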 Activity calls are given as the source filed them. Cut-off read from the data, not from the text of the source: active = GI50 up to about 1.1 µM and inactive = higher.

For `c1ccc(C2C(=P(c3ccccc3)(c3ccccc3)c3ccccc3)P=PC2[P+](c2ccccc2)(c2ccccc2)c2ccccc2)cc1.c1ccc([B-](c2ccccc2)(c2ccccc2)c2ccccc2)cc1` (stereo not given), the GI50 with A498 was 0.818 µM (active); in the assay on CCRF-CEM, 2.25 µM (inactive); in the assay on HOP-92 it was 0.555 µM (active); in the assay with IGROV-1, 0.57 µM (active); with KM12, 0.351 µM (active); in the assay with LOX IMVI, 0.333 µM (active). Besides, the GI50 with MCF7 was 0.543 µM (active); with MDA-MB-231 it was 0.39 µM (active); in the assay on OVCAR-3 it was 0.579 µM (active); in the assay on OVCAR-5, 2.97 µM (inactive); with PC-3, 0.471 µM (active); in the assay with RXF 393, 0.285 µM (active). Besides, the GI50 in the assay with SK-MEL-2 is 0.675 µM (active); with SK-MEL-5, 0.191 µM (active); with SN12C it was 0.507 µM (active); in the assay with SNB-19, 0.313 µM (active); with SNB-75, 0.582 µM (active); in the assay with SW-620, 0.767 µM (active). Besides, the results for the GI50 in the assay on UACC-257 and with UO-31 were 1.12 µM (inactive) and 18.8 µM (inactive), respectively.

Regarding `CC1(C)OC(CCO)CN1C(=O)OCc1ccccc1` (stereo not given), the GI50 in the assay on A498, with CCRF-CEM, in the assay on HOP-92, in the assay with IGROV-1, with KM12 and in the assay on LOX IMVI was > 100 µM (inactive) throughout. The GI50 in the assay on MCF7, in the assay on MDA-MB-231, in the assay with OVCAR-3, in the assay with OVCAR-5, in the assay with PC-3 and in the assay with RXF 393 was > 100 µM (inactive) in each case. Besides, the GI50 in the assay on SK-MEL-2 was > 100 µM (inactive); with SK-MEL-5, > 100 µM (inactive); in the assay with SN12C it was > 100 µM (inactive); in the assay on SNB-19 it was > 100 µM (inactive); in the assay on SNB-75 it was 92 µM (inactive); in the assay on SW-620 it was > 100 µM (inactive). The GI50 in the assay on UACC-257 and in the assay with UO-31 was > 100 µM (inactive) each time.

On to `Cc1cccc2c(N)c3cccc(C(=O)NCC[N+](C)(C)Cc4ccccc4[N+](=O)[O-])c3nc12`, for which the GI50 in the assay on A498 was 8.97 µM (inactive); with CCRF-CEM, 1.78 µM (inactive); in the assay with HOP-92, 10 µM (inactive); in the assay with IGROV-1, 5.78 µM (inactive); in the assay on KM12, 13.4 µM (inactive); in the assay on LOX IMVI it was 26.2 µM (inactive). The GI50 was 4.35 µM (inactive) in the assay on MCF7; 13.6 µM (inactive) in the assay on MDA-MB-231; 18 µM (inactive) in the assay with OVCAR-3; 13 µM (inactive) with OVCAR-5; 7.14 µM (inactive) in the assay with PC-3; 9.64 µM (inactive) in the assay with RXF 393. Moreover, the GI50 with SK-MEL-2 is 25.8 µM (inactive); with SK-MEL-5, 7.57 µM (inactive); with SN12C it was 2.11 µM (inactive); in the assay on SNB-19 it was 14.1 µM (inactive); with SNB-75, 1.64 µM (inactive); in the assay on SW-620, 7.6 µM (inactive). Besides, the GI50 in the assay with UACC-257 was 24.3 µM (inactive); in the assay with UO-31, 13.4 µM (inactive).

Consider `COC(=O)CNC(=O)C(Cc1ccccc1)NC(=O)c1ccc(-c2ccc(Cl)cc2Cl)o1` (stereo not given), for which the GI50 in the assay with A498 was 10.7 µM (inactive); in the assay with CCRF-CEM, 10.1 µM (inactive); with HOP-92, 12.4 µM (inactive); in the assay with IGROV-1, 18.7 µM (inactive); in the assay on KM12, 24.4 µM (inactive); in the assay with LOX IMVI, 23.5 µM (inactive). In addition, the GI50 in the assay with MCF7 was 17.8 µM (inactive); with MDA-MB-231, 19 µM (inactive); with OVCAR-3, 22.4 µM (inactive); with OVCAR-5 it was 28.4 µM (inactive); in the assay on PC-3, 21.1 µM (inactive); with RXF 393 it was 18.4 µM (inactive). In addition, the GI50 was 28.3 µM (inactive) in the assay with SK-MEL-2; 31.6 µM (inactive) in the assay on SK-MEL-5; 26.3 µM (inactive) with SN12C; 35.3 µM (inactive) in the assay with SNB-19; 30.9 µM (inactive) in the assay with SNB-75; 34.2 µM (inactive) with SW-620. For the same compound, the GI50 was 17.8 µM (inactive) in the assay on UACC-257 and 52.6 µM (inactive) in the assay with UO-31.

With `O=c1[nH]cc(NCCCl)c(=O)[nH]1`, the GI50 in the assay with A498, with CCRF-CEM, in the assay with HOP-92, in the assay on IGROV-1, in the assay on KM12 and in the assay with LOX IMVI was > 100 µM (inactive) each time. Moreover, the GI50 in the assay on MCF7, in the assay with MDA-MB-231, in the assay on OVCAR-3, in the assay on OVCAR-5, in the assay on PC-3 and in the assay on RXF 393 was > 100 µM (inactive) in each case. For the same compound, the GI50 in the assay on SK-MEL-2, with SK-MEL-5, with SN12C, in the assay with SNB-19, in the assay on SNB-75 and in the assay with SW-620 was > 100 µM (inactive) each time. The GI50 with UACC-257 and with UO-31 was > 100 µM (inactive) throughout.

In the case of `O=C(Nc1ccc(Cl)c(C(F)(F)F)c1)C(=O)c1c(O)c2ccccc2oc1=O`, the GI50 in the assay with A498, in the assay on CCRF-CEM, in the assay on HOP-92, with IGROV-1, in the assay with KM12 and in the assay on LOX IMVI was > 100 µM (inactive) in each case. The GI50 in the assay with MCF7, in the assay on MDA-MB-231, in the assay on OVCAR-3, in the assay on OVCAR-5, with PC-3 and in the assay with RXF 393 was > 100 µM (inactive) in each case. In addition, the GI50 in the assay on SK-MEL-2, in the assay with SK-MEL-5, with SN12C, in the assay on SNB-19, in the assay on SNB-75 and in the assay with SW-620 was > 100 µM (inactive) each time. In addition, the GI50 in the assay with UACC-257 and in the assay with UO-31 was > 100 µM (inactive) in each case.

As for `CC(=O)OC[C@]1(C(=O)C(O)c2ccoc2)[C@H](C)CC[C@@]23COC(=O)C2=CCC[C@@H]31` (stereo not given in full), the GI50 with A498, in the assay with CCRF-CEM, in the assay with HOP-92, with IGROV-1, in the assay with KM12 and with LOX IMVI was > 10 µM (inactive) in each case. The GI50 with MCF7, in the assay on MDA-MB-231, in the assay with OVCAR-3, in the assay on OVCAR-5, with PC-3 and in the assay on RXF 393 was > 10 µM (inactive) throughout. The GI50 with SK-MEL-2, with SK-MEL-5, in the assay with SN12C, with SNB-19, with SNB-75 and with SW-620 was > 10 µM (inactive) in each case. The GI50 in the assay with UACC-257 and with UO-31 was > 10 µM (inactive) in each case.

With `CCOC(=O)C1(Cc2ccccc2)Cc2cc3c(cc2C1=O)CCC3` (stereo not given), the GI50 with A498, with CCRF-CEM, in the assay on HOP-92, in the assay on IGROV-1, in the assay with KM12 and with LOX IMVI was > 100 µM (inactive) each time. The GI50 with MCF7, in the assay with MDA-MB-231, in the assay on OVCAR-3, in the assay on OVCAR-5, in the assay on PC-3 and in the assay on RXF 393 was > 100 µM (inactive) in each case. The GI50 with SK-MEL-2, in the assay with SK-MEL-5, in the assay with SN12C, in the assay with SNB-19, in the assay with SNB-75 and with SW-620 was > 100 µM (inactive) each time. The GI50 in the assay with UACC-257 and in the assay on UO-31 was > 100 µM (inactive) throughout.

Consider `C/C=C/[C@@H](C(=O)OC)N1C(=O)c2ccccc2[C@H]1O`, for which the GI50 with A498, with CCRF-CEM, in the assay with HOP-92, in the assay with IGROV-1, in the assay on KM12 and in the assay on LOX IMVI was > 100 µM (inactive) in each case. Also, the GI50 in the assay with MCF7, with MDA-MB-231, in the assay on OVCAR-3, in the assay with OVCAR-5, in the assay with PC-3 and with RXF 393 was > 100 µM (inactive) throughout. For the same compound, the GI50 with SK-MEL-2, with SK-MEL-5, in the assay on SN12C, with SNB-19, in the assay with SNB-75 and with SW-620 was > 100 µM (inactive) each time. Further, the GI50 with UACC-257 and with UO-31 was > 100 µM (inactive) in each case.

Consider `CC(=O)NC(CCCOC(C)=O)C(=O)NC(CCCOC(C)=O)C(=O)NC(CCCOC(C)=O)C(=O)NC(Cc1ccc([N+](=O)[O-])cc1)C(=O)NCC(=O)OCc1ccccc1` (stereo not given), for which the GI50 in the assay with A498, in the assay on CCRF-CEM, in the assay with HOP-92, with IGROV-1, in the assay with KM12 and in the assay on LOX IMVI was > 100 µM (inactive) each time. Moreover, the GI50 in the assay with MCF7, in the assay on MDA-MB-231, in the assay with OVCAR-3, in the assay with OVCAR-5, in the assay on PC-3 and with RXF 393 was > 100 µM (inactive) throughout. For the same compound, the GI50 in the assay with SK-MEL-2, with SK-MEL-5, in the assay on SN12C, in the assay on SNB-19, with SNB-75 and in the assay on SW-620 was > 100 µM (inactive) each time. In addition, the GI50 with UACC-257 and in the assay on UO-31 was > 100 µM (inactive) each time.

The record behind these values is ChEMBL document CHEMBL1201862, “PubChem BioAssay data set” (2004).
